Data taken from patent publication US20030212118A1, “Treatment of eating disorders using carboxyalkylethers” (priority 2000, published 2003).
Structures can show the parent of a compound that is named as a salt. Marks after values point to notes of the source that are not given here.

Experiments:
[1] = Evaluation of CI-1027 in female obese Zucker rats (body weight and liver weight); type: in vivo; conditions: for Body Weight Day 0: Day 0 (baseline), mean ± SEM; for Body Weight Day 0 / Body Weight Day 7 / Body Weight Day 14 / Body Weight Day 21 / Body Weight Day 28 / Body Weight Day 32 / Liver Weight Day 32 / Percent Liver/Body Weight: n = 6; for Body Weight Day 7: Day 7, mean ± SEM; for Body Weight Day 14: Day 14, mean ± SEM; for Body Weight Day 21: Day 21, mean ± SEM; for Body Weight Day 28: Day 28, mean ± SEM; for Body Weight Day 32 / Liver Weight Day 32 / Percent Liver/Body Weight: Day 32, mean ± SEM
Procedure: Adult female obese Zucker rats weighing 265 to 268 g were obtained from Genetic Models, Inc. The animals were maintained on a diet of pelleted rodent chow (Ralston Purina) and were given water ad libitum. The animals were housed in cages in a temperature controlled room, with a 12-hour light/12-hour dark cycle (lights were turned on at 6 AM each day). CI-1027 was suspended in a vehicle of 1.5% carboxymethylcellulose containing 0.2% Tween-20. A control group of six rats were dosed daily with vehicle alone. One group of six test animals received daily oral dosing (by gavage) of 2.5 mL/kg suspensions of CI-1027 at 30 mg/kg active drug, while another group of six animals received daily oral dosing of 2.5 mL/kg of suspension at 100 mg/kg of CI-1027. The pelleted rodent chow was available ad libitun, except on Days 0, 7, 14, 21, 28, and 32, when food was removed from the cages at 7:30 AM, and the animals were weighed within 2 hours following removal of the food. The food trays were replaced in the cages after the weights of all animals were measured.

[2] = Evaluation of CI-1027 in leptin receptor deficient mice (body weight, food consumption); type: in vivo

CC(C)(CCCCOCCCCC(C)(C)C(=O)O)C(=O)O [CI-1027, 6-(5-carboxy-5-methyl-hexyloxy)-2,2-diiethyl-hexanoic acid, calcium salt]
Body Weight Day 0 ([1]; 30 mg/kg daily oral gavage): 265 ± 4 g | Body Weight Day 7 ([1]; 30 mg/kg daily oral gavage): 283 ± 4^a g | Body Weight Day 14 ([1]; 30 mg/kg daily oral gavage): 299 ± 4^c g | Body Weight Day 21 ([1]; 30 mg/kg daily oral gavage): 311 ± 3^c g | Body Weight Day 28 ([1]; 30 mg/kg daily oral gavage): 317 ± 4^c g | Body Weight Day 32 ([1]; 30 mg/kg daily oral gavage): 321 ± 4^c g | Liver Weight Day 32 ([1]; 30 mg/kg daily oral gavage): 22.8 ± 1.0^c g | Percent Liver/Body Weight ([1]; 30 mg/kg daily oral gavage): 7.09 ± 0.3^c Percent | Body Weight Day 0 ([1]; 100 mg/kg daily oral gavage): 265 ± 4 g | Body Weight Day 7 ([1]; 100 mg/kg daily oral gavage): 286 ± 3^a g | Body Weight Day 14 ([1]; 100 mg/kg daily oral gavage): 302 ± 4^b g | Body Weight Day 21 ([1]; 100 mg/kg daily oral gavage): 314 ± 4^c g | Body Weight Day 28 ([1]; 100 mg/kg daily oral gavage): 326 ± 5^c g | Body Weight Day 32 ([1]; 100 mg/kg daily oral gavage): 326 ± 5^c g | Liver Weight Day 32 ([1]; 100 mg/kg daily oral gavage): 24.8 ± 1.3^c g | Percent Liver/Body Weight ([1]; 100 mg/kg daily oral gavage): 7.53 ± 0.3^c Percent | reduction in weight ([1]; all treatment groups (30 and 100 mg/kg), over 32 days): significant reduction in weight | effect on body weight [2]: no significant effect | effect on food consumption [2]: no significant effect
